Results as given in patent US20250186461A1, “METHODS AND COMPOSITIONS FOR TREATING AND/OR PREVENTING HERNIAS” (Northwestern University, priority 2023, published 2025).

Tests used:
aromatase enzyme = target: T1, aromatase enzyme (Homo sapiens, UniProt P11511); conditions: cited from earlier work
T1 sequence (P11511 1-503): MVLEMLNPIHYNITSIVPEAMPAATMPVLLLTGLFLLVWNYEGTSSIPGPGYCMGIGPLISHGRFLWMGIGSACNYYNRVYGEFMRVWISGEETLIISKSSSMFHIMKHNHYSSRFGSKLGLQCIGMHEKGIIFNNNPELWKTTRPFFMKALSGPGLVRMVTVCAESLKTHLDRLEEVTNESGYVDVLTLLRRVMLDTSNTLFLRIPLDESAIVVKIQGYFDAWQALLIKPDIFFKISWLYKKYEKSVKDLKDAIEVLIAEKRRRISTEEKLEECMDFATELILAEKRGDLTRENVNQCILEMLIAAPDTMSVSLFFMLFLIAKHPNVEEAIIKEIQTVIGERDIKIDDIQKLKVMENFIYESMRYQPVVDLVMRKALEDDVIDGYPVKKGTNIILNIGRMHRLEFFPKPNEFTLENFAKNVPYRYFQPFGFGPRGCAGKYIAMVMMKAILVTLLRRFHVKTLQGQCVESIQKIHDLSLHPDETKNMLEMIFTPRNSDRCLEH

WT mice = experiment: E2/P4-induced hernia formation in WT mice; format: in vivo, mouse; conditions: WT male mice, concurrent treatment with P4+E2
Text: All placebo-treated Arom^hum mice developed hernias starting from 5 weeks of age. None of the WT littermates developed hernias. […] The mouse scrotum is connected to the peritoneal cavity with a narrow funicular (or inguinal) canal, with walls composed of LAM tissue. Structurally normal LAM tissue is essential to maintain the tone of this canal and prevent herniation of the bowel.
Experiment 1a1: Does the addition of P4 to E2 treatment accelerate LAM fibrosis and hernia formation in WT mice? It was shown that treatment of male WT mice with extremely high doses of systemic estrogens starting around or after the onset of puberty caused inguinal hernia in one third to half of these animals^23-25. We hypothesize that this effect is primarily mediated by the E2 induction of PGR expression in LAM fibroblasts. Male mice have readily detectable P4 levels in the circulation and LAM tissue to activate PGR in LAM fibroblasts (FIG. 6). If this were true, the addition of pharmacologic quantities of P4 (75 mg/pellet for 12-week release)^73 to E2 (0.3 mg/pellet for 12-week release)^23-25 in WT mice should accelerate this phenotype. Our ongoing preliminary study, whereby a 6-week treatment with P4+E2 induced large inguinal hernia in all WT mice (FIG. 7A), supports the following experiment. Long-term (8 weeks or longer) treatment with E2 only is anticipated to cause hernias in up to half of WT mice based on previous findings^23-25. We will determine whether P4+E2 treatment over 12 weeks will give rise to larger hernias in a higher number of mice compared with E2-only treatment. […] See Statistical Methods above for sample size calculation. Hernia surface area will be measured using a digital caliper and calculated as previously described (length×width)^19. At the designated endpoints, LAM and UAM (control) from each mouse will be resected, with one-half of the tissue snap-frozen in liquid nitrogen, and the other half fixed in 4% phosphate-buffered paraformaldehyde for histological and IHC analyses (see below). […]

PGR = target: T2, PGR (Homo sapiens, UniProt P06401); conditions: cited from earlier work
T2 sequence (P06401 1-933): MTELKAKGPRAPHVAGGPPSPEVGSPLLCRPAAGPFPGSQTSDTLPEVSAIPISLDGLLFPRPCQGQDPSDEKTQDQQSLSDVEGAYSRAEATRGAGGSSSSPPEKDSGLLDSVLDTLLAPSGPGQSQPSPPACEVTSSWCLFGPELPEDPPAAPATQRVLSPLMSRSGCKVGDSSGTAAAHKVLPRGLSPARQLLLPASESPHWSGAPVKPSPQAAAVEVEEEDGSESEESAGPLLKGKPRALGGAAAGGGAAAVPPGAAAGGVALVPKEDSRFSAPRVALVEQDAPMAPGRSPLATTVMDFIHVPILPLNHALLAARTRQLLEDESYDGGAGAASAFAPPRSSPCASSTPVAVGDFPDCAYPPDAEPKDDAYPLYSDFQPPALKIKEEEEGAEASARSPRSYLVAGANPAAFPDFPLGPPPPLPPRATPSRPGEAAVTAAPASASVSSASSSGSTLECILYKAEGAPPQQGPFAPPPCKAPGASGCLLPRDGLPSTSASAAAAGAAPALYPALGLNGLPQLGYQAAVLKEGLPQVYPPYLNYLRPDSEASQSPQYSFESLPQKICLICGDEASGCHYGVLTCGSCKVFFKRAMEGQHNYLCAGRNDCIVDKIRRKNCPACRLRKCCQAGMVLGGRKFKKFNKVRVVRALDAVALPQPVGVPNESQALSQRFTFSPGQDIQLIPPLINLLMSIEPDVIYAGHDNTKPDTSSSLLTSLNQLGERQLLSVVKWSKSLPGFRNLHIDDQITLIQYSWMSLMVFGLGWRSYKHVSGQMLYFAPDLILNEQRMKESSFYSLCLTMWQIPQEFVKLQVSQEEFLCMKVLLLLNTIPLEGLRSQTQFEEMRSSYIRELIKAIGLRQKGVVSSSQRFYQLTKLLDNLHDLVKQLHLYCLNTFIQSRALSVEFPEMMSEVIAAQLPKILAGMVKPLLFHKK

| SMILES | inhibition of aromatase enzyme activity (aromatase enzyme) | prevention of P4+E2-induced large hernias (WT mice) | P4/PGR antagonism and PGR selectivity (PGR) |
| --- | --- | --- | --- |
| CC#C[C@]1(O)CC[C@H]2[C@@H]3CCC4=CC(=O)CCC4=C3[C@@H](c3ccc(N(C)C)cc3)C[C@@]21C [RU486, Mifepristone] | does not inhibit aromatase enzyme activity | completely prevented |  |
| CC(=O)O[C@]1(C(C)=O)CC[C@H]2[C@@H]3CCC4=CC(=O)CCC4=C3[C@@H](c3ccc(N(C)C)cc3)C[C@@]21C [UPA, Ulipristal acetate] | does not inhibit aromatase enzyme activity |  | very high PGR selectivity |
